What was measured:
[1] = 101 kPa, Liquid; for speed of sound: Sing-around technique in a fixed-path interferometer
[2] = xn = mol fraction of the nth substance listed; details: 101 kPa, Liquid; for speed of sound: Sing-around technique in a fixed-path interferometer

BrCCBr [1,2-dibromoethane]
[1]
Details | mass density [kg/m3] | speed of sound [m/s]
293.15 K | 2179.59 | 1007
298.15 K | 2169.14 | 994.27

BrCCBr [1,2-dibromoethane] + CCCCCCO
[2]
Details | mass density, 293.15 K [kg/m3] | mass density, 298.15 K [kg/m3] | speed of sound, 293.15 K [m/s] | speed of sound, 298.15 K [m/s]
x1 = 0.0402 | 856.608 | 852.83 | 1296.7 | 1280
x1 = 0.0682 | 883.413 | 879.495 | 1281 | 1264.4
x1 = 0.1276 | 941.916 | 937.69 | 1249.4 | 1233.1
x1 = 0.2056 | 1022.36 | 1017.7 | 1211.2 | 1195.3
x1 = 0.2686 | 1090.47 | 1085.45 | 1182.9 | 1167.3
x1 = 0.3892 | 1228.97 | 1223.2 | 1135.2 | 1120.2
x1 = 0.4277 | 1276.43 | 1270.41 | 1121.2 | 1106.3
x1 = 0.5444 | 1427.13 | 1420.31 | 1083.6 | 1069.2
x1 = 0.6405 | 1562 | 1554.45 | 1057.4 | 1043.6
x1 = 0.7326 | 1701.64 | 1693.37 | 1036.5 | 1023.1
x1 = 0.8519 | 1899.69 | 1890.44 | 1016.8 | 1004
x1 = 0.9273 | 2036.52 | 2026.66 | 1009.9 | 997.38
x1 = 0.9587 | 2096.51 | 2086.4 | 1008.3 | 995.92
x1 = 0.9782 | 2135.29 | 2125.02 | 1007.4 | 994.76
x1 = 1 | 2179.59 | 2169.14 | 1007 | 994.27

ClCCCl [1,2-dichloroethane]
[1]
Details | mass density [kg/m3] | speed of sound [m/s]
293.15 K | 1252.77 | 1212.9
298.15 K | 1245.56 | 1193.6

ClCCCl [1,2-dichloroethane] + CCCCCCO
[2]
Details | mass density, 293.15 K [kg/m3] | mass density, 298.15 K [kg/m3] | speed of sound, 293.15 K [m/s] | speed of sound, 298.15 K [m/s]
x1 = 0.037 | 828.769 | 825.105 | 1313.2 | 1296.2
x1 = 0.0769 | 839.847 | 836.074 | 1305.3 | 1288.2
x1 = 0.1499 | 860.583 | 856.62 | 1291.7 | 1274.3
x1 = 0.2147 | 879.725 | 875.586 | 1279.7 | 1262.2
x1 = 0.2935 | 904.954 | 900.591 | 1265.2 | 1248
x1 = 0.3952 | 940.475 | 935.784 | 1247.7 | 1230
x1 = 0.4532 | 962.107 | 957.223 | 1238.5 | 1220.7
x1 = 0.5596 | 1005.05 | 999.79 | 1222.8 | 1206
x1 = 0.6113 | 1027.55 | 1022.09 | 1216.7 | 1199.8
x1 = 0.6971 | 1067.98 | 1062.14 | 1207.9 | 1189.7
x1 = 0.7791 | 1111.06 | 1104.85 | 1202.3 | 1184.3
x1 = 0.8563 | 1155.16 | 1148.59 | 1200.7 | 1182.8
x1 = 0.9335 | 1205.43 | 1198.46 | 1205.4 | 1184.3
x1 = 0.979 | 1236.99 | 1229.8 | 1211.8 | 1187.7
x1 = 1 | 1252.77 | 1245.56 | 1212.9 | 1193.6

CCCCCCO [hexan-1-ol]
[1]
Details | mass density [kg/m3] | speed of sound [m/s]
293.15 K | 818.856 | 1320.1
298.15 K | 815.281 | 1303.2

CCCCCCO [hexan-1-ol] + BrCCBr
[2], x2 = 0
Details | mass density [kg/m3] | speed of sound [m/s]
293.15 K | 818.856 | 1320.1
298.15 K | 815.281 | 1303.2

CCCCCCO [hexan-1-ol] + ClC(Cl)=C(Cl)Cl
[2], x2 = 0
Details | mass density [kg/m3] | speed of sound [m/s]
293.15 K | 818.856 | 1320.1
298.15 K | 815.281 | 1303.2

CCCCCCO [hexan-1-ol] + ClCCCl
[2], x2 = 0
Details | mass density [kg/m3] | speed of sound [m/s]
293.15 K | 818.856 | 1320.1
298.15 K | 815.281 | 1303.2

ClC(Cl)=C(Cl)Cl [tetrachloroethene]
[1]
Details | mass density [kg/m3] | speed of sound [m/s]
293.15 K | 1622.74 | 1054
298.15 K | 1614.43 | 1039

ClC(Cl)=C(Cl)Cl [tetrachloroethene] + CCCCCCO
[2]
Details | mass density, 293.15 K [kg/m3] | mass density, 298.15 K [kg/m3] | speed of sound, 293.15 K [m/s] | speed of sound, 298.15 K [m/s]
x1 = 0.0688 | 864.637 | 860.792 | 1292 | 1274.5
x1 = 0.123 | 901.521 | 897.46 | 1270.8 | 1253.7
x1 = 0.2457 | 987.759 | 983.18 | 1226.3 | 1209.5
x1 = 0.3618 | 1072.99 | 1067.89 | 1188.2 | 1171.6
x1 = 0.4502 | 1140.46 | 1134.94 | 1161.5 | 1144.9
x1 = 0.5583 | 1226.3 | 1220.26 | 1131.5 | 1115.1
x1 = 0.6518 | 1303.62 | 1297.1 | 1108.3 | 1092
x1 = 0.7068 | 1350.53 | 1343.73 | 1095.8 | 1079.5
x1 = 0.7419 | 1381.18 | 1374.19 | 1088.4 | 1072
x1 = 0.7797 | 1414.65 | 1407.46 | 1080.9 | 1064.6
x1 = 0.8315 | 1461.44 | 1453.97 | 1071.4 | 1055.6
x1 = 0.8718 | 1498.8 | 1491.15 | 1064.7 | 1049
x1 = 0.9179 | 1542.25 | 1534.33 | 1058.2 | 1043.3
x1 = 0.9504 | 1573.61 | 1565.56 | 1055 | 1041.2
x1 = 1 | 1622.74 | 1614.43 | 1054 | 1039

Reference: the NIST ThermoML archive (doi:10.1007/s10765-010-0874-x)
